Measured values taken from publication PMC11851430, “Workflow for E3 Ligase Ligand Validation for PROTAC Development” (ACS Chemical Biology, 2025).

Key:
full-length AAK1 = full-length AAK1 (Homo sapiens, UniProt Q2M2I8); assay: NanoBRET target engagement assay, intact and permeabilized cells
Protocol: (§9) Compounds were pipetted at various concentrations using an Echo acoustic dispenser (Labcyte), immediately followed by Tracer K10 (Promega, Tracer DB ID: T000008) for AAK1 and Aurora A and VHL Tracer (Promega, Tracer DB ID: T000019) for VHL, at an optimum KD concentration chosen from TracerDB ( tracerdb.org), respectively.
(§10) To measure the BRET signal, the NanoBRET® NanoGlo Substrate (Promega:
(§11) N1573) was added as per the manufacturer’s protocol, and filtered luminescence was measured on a PHERAstar plate reader (BMG Labtech) equipped with a luminescence filter pair (450 nm BP filter (donor) and 610 nm LP filter (acceptor)). For NanoBRET® measurement in permeabilized cells, 25 nL of digitonin (0.05 μg/μL) was pipetted into each well using an
(§12) After incubation, the BRET signals were measured by a PHERAstar plate reader (BMG Labtech) following the same procedure as intact NanoBRET® measurement. Competitive displacement data were then normalized to controls and were plotted using GraphPad Prism 9 software employing a normalized 3-parameter curve fit with the following equation:

AURKA = target: T1, AURKA (Homo sapiens, UniProt O14965); assay: as above; conditions: mean of duplicates, ^a values estimated by extrapolation
T1 sequence (O14965 1-403): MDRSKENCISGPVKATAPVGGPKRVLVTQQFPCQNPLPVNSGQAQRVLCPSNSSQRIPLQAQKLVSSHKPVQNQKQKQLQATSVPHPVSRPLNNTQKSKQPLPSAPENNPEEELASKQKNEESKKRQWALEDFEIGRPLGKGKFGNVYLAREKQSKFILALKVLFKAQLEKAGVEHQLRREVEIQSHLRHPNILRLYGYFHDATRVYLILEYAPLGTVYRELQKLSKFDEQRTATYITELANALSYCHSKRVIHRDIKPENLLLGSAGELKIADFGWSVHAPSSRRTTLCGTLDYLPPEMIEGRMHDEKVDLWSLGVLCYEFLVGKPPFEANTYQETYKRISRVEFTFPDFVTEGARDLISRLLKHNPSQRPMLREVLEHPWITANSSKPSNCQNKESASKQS
Protocol: as §9, §10, §11, §12

[1] = target: T2, kinase protein levels in MCF-7 cells (Homo sapiens, UniProt A0A096LP01); assay: TMT-labeled quantitative proteomics; type: cell-based
T2 construct: endogenous in cells; host or cells: MCF-7
T2 sequence (A0A096LP01 whole entry): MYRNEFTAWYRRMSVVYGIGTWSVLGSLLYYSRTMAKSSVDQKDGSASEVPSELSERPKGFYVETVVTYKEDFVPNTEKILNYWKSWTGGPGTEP
Protocol: (§1) 50 µl of SDS Lysis Buffer (2% SDS, 50 mM TRIS pH 8.5, 10 mM TCEP, 40 mM CAA) was added to each sample. Cells were transferred into low binding reaction tubes (Eppendorf:
(§2) Methanol/Chloroform Precipitation. 200 µl of methanol and 50 µl of chloroform were added to each sample reaction tube and mixed via vortex. 150 µl of milliQ-H2O were added and samples were vortexed further. Samples were centrifuged for 5 minutes at 15000 g and the aqueous layer above the interphase was removed. 150 µl of methanol was added, samples were vortexed and centrifuged for 10 minutes at 15000 g to precipitate the pellet. The aforementioned wash procedure was repeated twice before transferring the pellet to a new low bind reaction tube in which it was allowed to dry for 5 minutes.
(§3) Dissolving the Protein Pellet and Protein Quantification. 50 µl of digestion buffer (8 M Urea, 50 mM TRIS pH 8) was added to each sample before vortexing and shaking at 750 rpm at room temperature for 10 minutes to solubilize the pellet. Protein quantification via PierceTM […]
(§4) Protein Digestion. Samples were diluted 1:2 with 50 mM TRIS pH 8.5 to reach a final concentration of 4 M Urea. Lys-C (Promega: VA1170) was added at a 1:100 enzyme/substrate ratio. Samples were agitated at 550 rpm and 37 °C for 3 h. Samples were further diluted with 50 mM TRIS pH 8.5 to a final concentration of 1 M Urea and Trypsin (Promega: V5280) was added at a 1:100 enzyme/substrate ratio. Samples were agitated overnight at 550 rpm and 37 °C. The digestion was stopped the following day via addition of TFA to a final concentration […]
(§5) Solid Phase Extraction via C18 Cartridges. Sep-Pak C18 Cartridges (Waters: WAT054955) were used for solid phase extraction of digested peptides. For preconditioning of C18 cartridges, 1 mL of methanol was added to each column followed by 1 mL of solution B (0.1% formic acid, 80% acetonitrile) and 1 mL of solution A (0.1% formic acid, ddH2O) twice. Samples […]
(§6) were loaded to their respective columns and once samples had passed, columns were washed twice with solution A to remove unwanted components from the loading step. Elution of samples was carried out via introduction of 40% and 60% acetonitrile steps. Samples were dried and snap frozen in liquid nitrogen.
(§7) TMT-Labeling. Desalted peptides were dried and resuspended in TMT-labeling buffer (200 mM EPPS pH 8.2, 20% acetonitrile). 10 μg of peptides per condition were subjected to TMT labeling with 1:2.5 peptide TMT ratio (w/w) for 1 h at room temperature. The labeling reaction was quenched by addition of hydroxylamine to a final concentration of 0.5% and incubation at room temperature for 15 minutes. Successful TMT labeling was verified by mixing equimolar ratios of peptides and subjecting the mix to single shot LC-MS/MS analysis. For high pH reversed phase fractionation on a Dionex analytical HPLC, 50 µg of pooled and purified TMT labelled samples were resuspended in 10 mM ammonium-bicarbonate (ABC), 5% acetonitrile, and separated on a 250 mm long C18 column (Aeris Peptide XB-C18, 4.6 mm ID, 2.6 µm particle size; Phenomenex) using a multistep gradient from 100% solvent A (5% acetonitrile, 10 mM ABC in water) to 60% solvent B (90% acetonitrile, 10 mM ABC in water) over 70 minutes. Eluting peptides were collected every 45 seconds into a total of 96 fractions, which were cross-concatenated into 24 fractions and dried in a vacuum concentrator and resuspended in 3% acetonitrile with 0.1% TFA for LC-MS analysis.
(§8) Mass spectrometry data acquisition. Tryptic peptides were analyzed on an Orbitrap Lumos coupled to an easy nLC 1200 (ThermoFisher Scientific) using a 35 cm long, 75 µm ID fused-silica column packed in house with 1.9 µm C18 particles (Reprosil pur, Dr. Maisch), and kept at 50 °C using an integrated column oven (Sonation). HPLC solvents consisted of 0.1% formic acid in water (buffer A) and 0.1% formic acid and 80% acetonitrile in water (buffer B). Assuming

[2] = tested on: kinase protein levels in MCF-7 cells; assay: TMT-labeled quantitative proteomics; type: cell-based, human; conditions: for kinase degradation: MCF-7 cells, 6 h
Protocol: as §1, §2, §3, §4, §5, §6, §7, §8

Jurkat cells = assay: CellTiterGlo cell viability assay; type: cell-based, human; conditions: 24 h; for IC50: Homo sapiens, mean of triplicates, ^b/^c values estimated, read-out: IC50±sd/μM (cell viability)
In short: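 Jurkat cells treated with compound titrations; viability read by CellTiter-Glo 2.0 luminescence after 10 min at room temperature, fitted to a four-parameter curve. Proteomics samples lysed in 2% SDS, 50 mM Tris pH 8.5, TCEP and CAA, sonicated, then analysed by label-free quantitation.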

[3] = AAK1 intact (IC50±sd)/μM, NanoBRET, intact cells, mean of duplicates, ^a values estimated by extrapolation
[4] = AAK1 permeabilized (IC50±sd)/μM, NanoBRET, permeabilized cells, mean of duplicates
[5] = AURKA intact (IC50±sd)/μM, intact cells
[6] = AURKA permeabilized (IC50±sd)/μM, permeabilized cells
[7] = protein LINC00493, MCF7, 2.5 µM, set3
[8] = protein LINC00493, MCF, 0.25µM, set4
[9] = protein NBPF19;NBPF8;NBPF10;NBPF15;NBPF26;NBPF14;NBPF1;NBPF12, MCF, 0.25µM, set4
[10] = protein NBPF19;NBPF8;NBPF26;NBPF14;NBPF12;NBPF10;NBPF15;NBPF1, MCF7, 2.5 µM, set3
[11] = protein NBPF19;NBPF15;NBPF8;NBPF10;NBPF26;NBPF14, MCF7, 1 µM, set1.1
[12] = protein NUDT4, MCF7, 1 µM, set1.1
[13] = protein NUDT4;NUDT11;NUDT10, MCF, 0.25µM, set4
[14] = protein UQCRHL;UQCRH, MCF, 0.25µM, set4
[15] = protein SMIM26, MCF7, 1 µM, set2
[16] = protein LINC00493, MCF7, 1 µM, set5

full-length AAK1, sequence (Q2M2I8 whole entry): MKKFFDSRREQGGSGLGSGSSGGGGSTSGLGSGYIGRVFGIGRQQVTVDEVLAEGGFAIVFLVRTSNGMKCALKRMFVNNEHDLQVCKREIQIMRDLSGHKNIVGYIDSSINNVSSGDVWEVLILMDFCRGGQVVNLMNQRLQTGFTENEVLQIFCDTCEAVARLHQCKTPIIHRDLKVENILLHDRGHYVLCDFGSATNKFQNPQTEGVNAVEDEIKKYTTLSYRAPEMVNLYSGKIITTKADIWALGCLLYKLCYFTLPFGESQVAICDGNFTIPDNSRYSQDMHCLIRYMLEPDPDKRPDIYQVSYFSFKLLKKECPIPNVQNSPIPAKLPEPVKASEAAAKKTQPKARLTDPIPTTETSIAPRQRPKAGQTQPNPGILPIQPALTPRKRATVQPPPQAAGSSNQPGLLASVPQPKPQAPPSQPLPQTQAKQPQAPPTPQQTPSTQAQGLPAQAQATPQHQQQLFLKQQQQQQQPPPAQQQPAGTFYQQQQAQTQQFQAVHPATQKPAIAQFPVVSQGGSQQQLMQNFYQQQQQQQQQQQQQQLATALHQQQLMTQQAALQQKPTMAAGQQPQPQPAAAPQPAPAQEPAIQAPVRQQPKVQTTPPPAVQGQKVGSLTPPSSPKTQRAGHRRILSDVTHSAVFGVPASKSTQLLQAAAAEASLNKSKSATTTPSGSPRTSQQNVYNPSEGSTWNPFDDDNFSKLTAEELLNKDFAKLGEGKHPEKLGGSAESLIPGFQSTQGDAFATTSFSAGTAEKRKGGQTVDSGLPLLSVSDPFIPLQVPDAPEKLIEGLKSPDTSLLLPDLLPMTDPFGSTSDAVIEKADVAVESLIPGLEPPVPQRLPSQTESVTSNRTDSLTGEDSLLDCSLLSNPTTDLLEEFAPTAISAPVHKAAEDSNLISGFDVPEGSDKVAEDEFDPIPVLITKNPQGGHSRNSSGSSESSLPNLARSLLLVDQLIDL

Structure (SMILES)	IC50 (full-length AAK1; [3]) [µM]	IC50 (full-length AAK1; [4]) [µM]	IC50 (AURKA; [5]) [µM]	IC50 (AURKA; [6]) [µM]	P.Value (compound/DMSO) [1, 7]	log2FC (compound/DMSO) [1, 7]	P.Value (compound/DMSO) [1, 8]	log2FC (compound/DMSO) [1, 8]	IC50 (Jurkat cells) [µM]	kinase degradation ([2]; 0.25 μM)	kinase degradation ([2]; 1 μM)	kinase degradation ([2]; 2.5 μM)	log2FC (compound/DMSO) [2, 9]	log2FC (compound/DMSO) [2, 10]	log2FC (compound/DMSO) [2, 11]	log2FC (compound/DMSO) [2, 12]	log2FC (compound/DMSO) [2, 13]	log2FC (compound/DMSO) [2, 14]	further results
CC(C)(C)OC(=O)NCCOCCOCCOCCOCCC(=O)N1CCN(c2cc(Nc3cc(C4CC4)[nH]n3)nc(Nc3ccc(CC#N)cc3)n2)CC1 [4-L]	0.099 ± 0.011	0.023 ± 0.004	1.92 ± 0.07	0.63 ± 0.021	–	–	–	–	–	–	–	–	–	–	–	–	–	–	–
Cc1ncsc1-c1ccc(CNC(=O)[C@@H]2C[C@@H](O)CN2C(=O)[C@@H](NC(=O)CCOCCOCCOCCN2CCN(c3cc(Nc4cc(C5CC5)[nH]n4)nc(Nc4ccc(CC#N)cc4)n3)CC2)C(C)(C)C)cc1 [4-a]	0.21 ± 0.044	0.057 ± 0.004	3.68 ± 0.085	1.34 ± 0.271	0.002092	0.3781	0.1285	0.1013	–	Few kinases were degraded	significant degradation of several kinases	the number of degraded kinases was again lower	0.1164	0.132	-0.3973	-0.04751	0.003804	0.8375	–
CC(C)(C)OC(=O)NCCCOCCOCCOCCCNC(=O)c1cc(Nc2cc(C3CC3)[nH]n2)nc(Nc2ccc(CC#N)cc2)n1 [5-L]	0.308 ± 0.032	0.07 ± 0.012	~19.7	~7.05	–	–	–	–	5.7 ± 1.5	–	–	–	–	–	–	–	–	–	–
Cc1ncsc1-c1ccc(CNC(=O)[C@@H]2C[C@@H](O)CN2C(=O)[C@@H](NC(=O)CCOCCOCCNC(=O)c2cc(Nc3cc(C4CC4)[nH]n3)nc(Nc3ccc(CC#N)cc3)n2)C(C)(C)C)cc1 [5-a]	~8.76	0.162 ± 0.002	–	~16.9	–	–	–	–	–	–	did not result in significant degradation of any kinase	–	–	–	-0.2083	-0.05063	–	–	AAK1 intact (IC50±sd)/μM (full-length AAK1; NanoBRET, intact cells, mean of duplicates, ^a values estimated by extrapolation): single-digit micromolar; cell permeability / cell penetration (full-length AAK1; as shown by the NanoBRET data (intact vs permeabilized cells)): poor cell permeability; AURKA intact (IC50±sd)/μM (AURKA; intact cells): outside the assay window
CC(=O)N[C@H](C(=O)N1C[C@H](O)C[C@H]1C(=O)NCc1ccc(-c2scnc2C)cc1OCCOCCOCCOCCNC(=O)c1cc(Nc2cc(C3CC3)[nH]n2)nc(Nc2ccc(CC#N)cc2)n1)C(C)(C)C [5-b]	0.299 ± 0.038	0.192 ± 0.005	~18.5	~7.78	–	–	–	–	~18.7	–	did not result in significant degradation of any kinase	–	–	–	–	–	–	–	P.Value (compound/DMSO) [1, 15]: 0.1541; log2FC (compound/DMSO) [1, 15]: -0.1317

Second part, led by results:

IC50 (full-length AAK1; [3]) [µM]	IC50 (full-length AAK1; [4]) [µM]	IC50 (AURKA; [5]) [µM]	IC50 (AURKA; [6]) [µM]	P.Value (compound/DMSO) [1, 7]	log2FC (compound/DMSO) [1, 7]	P.Value (compound/DMSO) [1, 8]	log2FC (compound/DMSO) [1, 8]	IC50 (Jurkat cells) [µM]	Structure (SMILES)	kinase degradation ([2]; 0.25 μM)	kinase degradation ([2]; 1 μM)	kinase degradation ([2]; 2.5 μM)	log2FC (compound/DMSO) [2, 9]	log2FC (compound/DMSO) [2, 10]	log2FC (compound/DMSO) [2, 11]	log2FC (compound/DMSO) [2, 12]	log2FC (compound/DMSO) [2, 13]	log2FC (compound/DMSO) [2, 14]	further results
0.13 ± 0.003	0.055 ± 0.002	0.416 ± 0.031	0.254 ± 0.08	0.00484	-0.4049	0.5319	-0.03906	3.1 ± 0.8	Cc1ncsc1-c1ccc(CNC(=O)[C@@H]2C[C@@H](O)CN2C(=O)[C@@H](NC(=O)CCOCCOCCOCCOCCN2CCN(c3ccc(Nc4ncc(Cl)c(Nc5ccccc5C(N)=O)n4)cc3)CC2)C(C)(C)C)cc1 [6-b]	Few kinases were degraded	significant degradation of several kinases	the number of degraded kinases was again lower	-0.06617	-0.2581	-0.7206	-0.1525	0.182	0.8692	–
0.1 ± 0.008	0.053 ± 0.003	0.372 ± 0.014	0.249 ± 0.011	–	–	–	–	~0.1	Cc1ncsc1-c1ccc(CNC(=O)[C@@H]2C[C@@H](O)CN2C(=O)[C@@H](NC(=O)CCCCCCN2CCN(c3ccc(Nc4ncc(Cl)c(Nc5ccccc5C(N)=O)n4)cc3)CC2)C(C)(C)C)cc1 [6-d]	–	significant degradation of several kinases	–	–	–	–	–	–	–	effect on cell viability (cytotoxicity) (Jurkat cells): particularly pronounced effects on cell viability; P.Value (compound/DMSO) [1, 16]: 0.0001847; log2FC (compound/DMSO) [1, 16]: -0.9636; log2FC (compound/DMSO) ([2]; protein ARHGEF5;ARHGEF35, MCF7, 1 µM, set5): 0.09474; log2FC (compound/DMSO) ([2]; protein NBPF19;NBPF15;NBPF8;NBPF10;NBPF3;NBPF11;NBPF26;NBPF14;NBPF1;NBPF12, MCF7, 1 µM, set5): -0.4722
0.53 ± 0.246	0.123 ± 0.02	~2.2	0.861 ± 0.251	0.7735	0.04253	0.8916	-0.008166	–	CC(=O)N[C@H](C(=O)N1C[C@H](O)C[C@H]1C(=O)NCc1ccc(-c2scnc2C)cc1OCCOCCOCCOCCOCCC(=O)N1CCN(c2ccc(Nc3ncc(Cl)c(Nc4ccccc4C(N)=O)n3)cc2)CC1)C(C)(C)C [6-e]	no significantly degraded kinases were detected	did not result in significant degradation of any kinase	no significantly degraded kinases were detected	0.2043	0.155	–	–	-0.054	-0.5234	effect on cell viability (cytotoxicity) (Jurkat cells): no cytotoxicity was observed; P.Value (compound/DMSO) [1, 15]: 0.2313; log2FC (compound/DMSO) [1, 15]: -0.1331
